In patent US10564093B2, “Single injection competition assays” (Molecular Devices, LLC, priority 2015, dated 2020):

Test system: Carbonic anhydrase II enzyme
Assay: SPR single injection competitive binding analysis of CBS in the presence of Furosemide
Experimental: The binding interaction analysis was carried out using a SPR cell having a sensing region wherein the bound ligand is Carbonic anhydrase II enzyme immobilized on the surface of the biosensor via amine coupling to ˜6500 RU. […] According to the method described above, the dispersion gradient was prepared by initially aspirating, pulling, the Furosemide into the sample holding line followed by pulling the buffer into the sample holding line. […] The dispersion gradient of CBS was prepared using 200 μl of a 2 μM of CBS and 100 μl of buffer. The dispersion gradient of CBS in buffer was prepared by initially aspirating the CBS into the sample holding line followed by pulling the buffer into the sample holding line. The resulting dispersion gradient was immediately injected at a flow rate of 50 μl/min through the SPR sensing region containing the bound ligand.
FIGS. 16-18 will be referenced with regard to the method of determining binding competitive analysis. FIG. 16 reflects the relative concentrations of analyte when performing a binding competition analysis.
In contrast, the relative concentration of CBS will increase as a dispersion gradient during the competitive analysis.
The binding response curves of FIG. 17 were prepared by injecting two samples. […]

binding of CBS to the ligand in the presence of Furosemide (subtracted binding interaction curves, FIG. 18) (immobilized Carbonic anhydrase II, constant Furosemide, CBS dispersion gradient, Furosemide control curve subtracted): no binding
SMILES: NS(=O)(=O)c1ccc(C(=O)O)cc1 [CBS, 4-carboxy-benzenesulfonamide]
qualitative analysis of binding interaction curve of CBS/Furosemide dispersion gradient (FIG. 17, lines 1 and 3) (no control subtraction, curve remains substantially steady state): does not compete and does not contribute to the binding interaction
